# Test results published in patent US20100298141A1, “SUBSTITUTED PYRIDINE N-OXIDE HERBICIDES” (E. I. DU PONT DE NEMOURS AND COMPANY, priority 2007, published 2010).
# Key:
# corn = assay: Test A pre-/postemergence greenhouse test; type: in vivo, Zea mays; details: for Corn plant response rating: 0 to 100 scale; for Plant response rating, Corn: 0 to 100 scale where 0 is no effect and 100 is complete control
# In short: (§1)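 Greenhouse herbicide screen, pre- and postemergence in parallel. Soil: loam plus sand. Formulation: non-phytotoxic solvent mix with surfactant. Postemergence stage: one to two leaves, 2–10 cm height. Evaluation: visual injury, compared with untreated controls, about 10 days after treatment.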
# giant foxtail = assay: Test A pre-/postemergence greenhouse test; type: in vivo, Setaria faberi; details: for Foxtail, Giant plant response rating: 0 to 100 scale; for Plant response rating, Foxtail, Giant: 0 to 100 scale where 0 is no effect and 100 is complete control
# In short: as §1
# rice = assay: Test C flooded paddy test; type: in vivo, Oryza sativa; details: Flood
# Source text: (§2) At time of treatment, test pots were flooded to 3 cm above the soil surface, treated by application of test compounds directly to the paddy water, and then maintained at that water depth for the duration of the test. Treated plants and controls were maintained in a greenhouse for 13 to 15 days, after which time all species were compared to controls and visually evaluated. […] A dash (-) response means no test result.
# barnyardgrass [1] = assay: Test C flooded paddy test; type: in vivo, Echinochloa crus-galli; details: Flood
# Source text: as §2
# barnyardgrass [2] = assay: Test A pre-/postemergence greenhouse test; type: in vivo, Echinochloa crus-galli; details: for Barnyardgrass plant response rating: 0 to 100 scale; for Plant response rating, Barnyardgrass: 0 to 100 scale where 0 is no effect and 100 is complete control
# In short: as §1
# velvetleaf = assay: Test A pre-/postemergence greenhouse test; type: in vivo, Abutilon theophrasti; details: for Velvetleaf plant response rating: 0 to 100 scale; for Plant response rating, Velvetleaf: 0 to 100 scale where 0 is no effect and 100 is complete control
# In short: as §1
# redroot pigweed = assay: Test A pre-/postemergence greenhouse test; type: in vivo, Amaranthus retroflexus; details: for Pigweed plant response rating: 0 to 100 scale; for Plant response rating, Pigweed: 0 to 100 scale where 0 is no effect and 100 is complete control
# In short: as §1
# morningglory = assay: Test A pre-/postemergence greenhouse test; type: in vivo, Ipomoea spp.; details: for Morningglory plant response rating: 0 to 100 scale; for Plant response rating, Morningglory: 0 to 100 scale where 0 is no effect and 100 is complete control
# In short: as §1
# umbrella sedge = assay: Test C flooded paddy test; type: in vivo, Cyperus difformis; details: Flood
# Source text: as §2
# wheat = assay: Test A pre-/postemergence greenhouse test; type: in vivo, Triticum aestivum; details: for Wheat plant response rating: 0 to 100 scale; for Plant response rating, Wheat: 0 to 100 scale where 0 is no effect and 100 is complete control
# In short: as §1
# duck salad = assay: Test C flooded paddy test; type: in vivo, Heteranthera limosa; details: Flood
# Source text: as §2
# crabgrass = assay: Test A pre-/postemergence greenhouse test; type: in vivo, Digitaria sanguinalis; details: for Crabgrass, Large plant response rating: 0 to 100 scale; for Plant response rating, Crabgrass, Large: 0 to 100 scale where 0 is no effect and 100 is complete control
# In short: as §1
# [3] = Postemergence, 125 g ai/ha, 0 is no effect, 100 is complete control
# [4] = Postemergence, 500 g ai/ha, 0 is no effect, 100 is complete control
# [5] = Preemergence, 125 g ai/ha, 0 no effect, 100 complete control
# [6] = 31 g ai/ha, scale 0 to 100 (0 no effect, 100 complete control)
# [7] = 62 g ai/ha, scale 0 to 100, 0 no effect, 100 complete control, 13 to 15 days
# [8] = 125 g ai/ha, scale 0 to 100, 0 no effect, 100 complete control, 13 to 15 days
# [9] = 250 g ai/ha, scale 0 to 100, 0 no effect, 100 complete control, 13 to 15 days
# [10] = Preemergence, 500 g ai/ha, 0 no effect, 100 complete control
# [11] = 62 g ai/ha, scale 0 to 100 (0 no effect, 100 complete control)
smiles,measurement,setting,value
Cn1nc(C(F)(F)F)c(CS(=O)(=O)c2cc(Cl)cc[n+]2[O-])c1Cl [Compound 38],Corn plant response rating,corn; [3],0
same,Corn plant response rating,corn; [4],0
same,Corn plant response rating,corn; [5],0
same,"Plant response rating, Corn","corn; Preemergence, 500 g ai/ha",0
same,"Foxtail, Giant plant response rating",giant foxtail; [3],0
same,"Foxtail, Giant plant response rating",giant foxtail; [4],0
same,"Foxtail, Giant plant response rating",giant foxtail; [5],0
same,"Plant response rating, Foxtail, Giant","giant foxtail; Preemergence, 500 g ai/ha",30
same,"Plant response rating, Rice",rice; [6],0
same,"Plant response rating, Rice",rice; [7],0
same,"Plant response rating, Rice",rice; [8],0
same,"Plant response rating, Rice",rice; [9],0
same,"Plant response rating, Barnyardgrass",barnyardgrass [1]; [6],0
same,"Plant response rating, Barnyardgrass",barnyardgrass [1]; [7],0
same,"Plant response rating, Barnyardgrass",barnyardgrass [1]; [8],0
same,"Plant response rating, Barnyardgrass",barnyardgrass [1]; [9],0
same,Barnyardgrass plant response rating,barnyardgrass [2]; [3],0
same,Barnyardgrass plant response rating,barnyardgrass [2]; [4],0
same,Barnyardgrass plant response rating,barnyardgrass [2]; [5],30
same,"Plant response rating, Barnyardgrass","barnyardgrass [2]; Preemergence, 500 g ai/ha",60
same,Velvetleaf plant response rating,velvetleaf; [3],0
same,Velvetleaf plant response rating,velvetleaf; [4],0
same,Velvetleaf plant response rating,velvetleaf; [5],0
same,"Plant response rating, Velvetleaf","velvetleaf; Preemergence, 500 g ai/ha",0
same,Pigweed plant response rating,redroot pigweed; [3],0
same,Pigweed plant response rating,redroot pigweed; [4],0
same,Pigweed plant response rating,redroot pigweed; [5],0
same,"Plant response rating, Pigweed","redroot pigweed; Preemergence, 500 g ai/ha",0
same,Morningglory plant response rating,morningglory; [3],0
same,Morningglory plant response rating,morningglory; [4],0
same,Morningglory plant response rating,morningglory; [5],0
same,"Plant response rating, Morningglory","morningglory; Preemergence, 500 g ai/ha",0
same,"Plant response rating, Sedge, Umbrella",umbrella sedge; [6],0
same,"Plant response rating, Sedge, Umbrella",umbrella sedge; [7],0
same,"Plant response rating, Sedge, Umbrella",umbrella sedge; [8],0
same,"Plant response rating, Sedge, Umbrella",umbrella sedge; [9],0
same,Wheat plant response rating,wheat; [3],0
same,Wheat plant response rating,wheat; [4],0
same,Wheat plant response rating,wheat; [5],0
same,"Plant response rating, Wheat","wheat; Preemergence, 500 g ai/ha",0
same,"Plant response rating, Ducksalad",duck salad; [6],0
same,"Plant response rating, Ducksalad",duck salad; [7],0
same,"Plant response rating, Ducksalad",duck salad; [8],0
same,"Plant response rating, Ducksalad",duck salad; [9],0
same,"Crabgrass, Large plant response rating",crabgrass; [3],0
same,"Crabgrass, Large plant response rating",crabgrass; [4],0
same,"Crabgrass, Large plant response rating",crabgrass; [5],0
same,"Plant response rating, Crabgrass, Large","crabgrass; Preemergence, 500 g ai/ha",0
Cn1nc(C(F)(F)F)c(CS(=O)(=O)c2ccc(F)c[n+]2[O-])c1OC(F)F [Compound 107],"Plant response rating, Corn","corn; Postemergence, 125 g ai/ha",0
same,Corn plant response rating,corn; [4],0
same,Corn plant response rating,corn; [5],0
same,Corn plant response rating,corn; [10],0
same,"Plant response rating, Foxtail, Giant","giant foxtail; Postemergence, 125 g ai/ha",70
same,"Foxtail, Giant plant response rating",giant foxtail; [4],80
same,"Foxtail, Giant plant response rating",giant foxtail; [5],60
same,"Foxtail, Giant plant response rating",giant foxtail; [10],90
same,"Plant response rating, Rice",rice; [6],0
same,"Plant response rating, Rice",rice; [11],0
same,"Plant response rating, Rice",rice; [8],0
same,"Plant response rating, Rice",rice; [9],0
same,"Plant response rating, Barnyardgrass",barnyardgrass [1]; [6],0
same,"Plant response rating, Barnyardgrass",barnyardgrass [1]; [11],0
same,"Plant response rating, Barnyardgrass",barnyardgrass [1]; [8],20
same,"Plant response rating, Barnyardgrass",barnyardgrass [1]; [9],40
same,"Plant response rating, Barnyardgrass","barnyardgrass [2]; Postemergence, 125 g ai/ha",40
same,Barnyardgrass plant response rating,barnyardgrass [2]; [4],60
same,Barnyardgrass plant response rating,barnyardgrass [2]; [5],70
same,Barnyardgrass plant response rating,barnyardgrass [2]; [10],90
same,"Plant response rating, Velvetleaf","velvetleaf; Postemergence, 125 g ai/ha",0
same,Velvetleaf plant response rating,velvetleaf; [4],0
same,Velvetleaf plant response rating,velvetleaf; [5],0
same,Velvetleaf plant response rating,velvetleaf; [10],10
same,"Plant response rating, Pigweed","redroot pigweed; Postemergence, 125 g ai/ha",40
same,Pigweed plant response rating,redroot pigweed; [4],50
same,Pigweed plant response rating,redroot pigweed; [5],40
same,Pigweed plant response rating,redroot pigweed; [10],60
same,"Plant response rating, Morningglory","morningglory; Postemergence, 125 g ai/ha",0
same,Morningglory plant response rating,morningglory; [4],50
same,Morningglory plant response rating,morningglory; [5],0
same,Morningglory plant response rating,morningglory; [10],60
same,"Plant response rating, Sedge, Umbrella",umbrella sedge; [6],0
same,"Plant response rating, Sedge, Umbrella",umbrella sedge; [11],0
same,"Plant response rating, Sedge, Umbrella",umbrella sedge; [8],0
same,"Plant response rating, Sedge, Umbrella",umbrella sedge; [9],20
same,"Plant response rating, Wheat","wheat; Postemergence, 125 g ai/ha",0
same,Wheat plant response rating,wheat; [4],0
same,Wheat plant response rating,wheat; [5],0
same,Wheat plant response rating,wheat; [10],0
same,"Plant response rating, Ducksalad",duck salad; [6],0
same,"Plant response rating, Ducksalad",duck salad; [11],0
same,"Plant response rating, Ducksalad",duck salad; [8],0
same,"Plant response rating, Ducksalad",duck salad; [9],65
same,"Plant response rating, Crabgrass, Large","crabgrass; Postemergence, 125 g ai/ha",70
same,"Crabgrass, Large plant response rating",crabgrass; [4],80
same,"Crabgrass, Large plant response rating",crabgrass; [5],60
same,"Crabgrass, Large plant response rating",crabgrass; [10],80
